Literature values, collected in patent US8034844B2, “Compositions having a high antiviral efficacy” (The Dial Corporation, priority 2006, dated 2011).

Tested on: rhinoviral infections
Conditions: vs placebo users

In the case of `II` [iodine], the “Incidence of colds in users” value is listed as “significantly fewer colds than placebo users”.
